The values that follow come from paper PMC3183106 (Pharmacological research : the official journal of the …, 2011).

The conditions of data set [1]: human, in vivo.
The conditions of data set [2]: cited from earlier work.
For data set [3] the following is noted: cited from earlier work. This is another data set of the same source.
The conditions of data set [4]: mean ± SEM.
For data set [5] the following is noted: mean ± SEM. The source holds these as a separate data set.

Where two headings read alike, the source gives them in different places.

With `C[S+]([O-])CCCCN=C=S` (stereo not shown) [SFN, sulforaphane], in data set [1], the “Time by which total metabolites almost completely cleared from the plasma” value is given as at most 24 h. For the same compound, the “SFN recovered after consumption” value in data set [2] (broccoli powder) was 19%; in data set [2] (broccoli sprouts), 74%.
Regarding `CC(C)=CCC/C(C)=C/C=C/C(C)=C/C=C/C(C)=C/C=C/C=C(C)/C=C/C=C(C)/C=C/C=C(\C)CCC=C(C)C` [Lycopene], the “Increase in serum concentrations” value in data set [3] (heat processed tomato juice) is 2–3 fold. The “Change in serum concentrations” value in data set [3] (unprocessed tomato juice) is listed as “no change”.
Take `CSCCCCNC(=S)SC[C@H](N)C(=O)NCC(=O)O` [ERN-CG, ERN-cysteinylglycine]: the “Percent of metabolite relative to total for respective ITC in the plasma” value in data set [4] (12 hrs after broccoli sprouts, GSTP1 A/A (n=7)) worked out at 69.4 ± 1.38%; in data set [4] (12 hrs after broccoli sprouts, GSTP1 A/G (n=5)), 67.6 ± 1.19%; in data set [4] (12 hrs after broccoli supplement, GSTP1 A/A (n=7)), 72.9 ± 1.78%; in data set [4] (12 hrs after broccoli supplement, GSTP1 A/G (n=5)) it was 75.1 ± 1.44%. The “Percent of metabolite relative to total metabolites for respective ITC in urine” value was 0.11 ± 0.01% in data set [5] (first 12 hrs after broccoli sprouts, GSTP1 A/A (n=7)); 0.12 ± 0.04% in data set [5] (first 12 hrs after broccoli sprouts, GSTP1 A/G (n=5)); 0.89 ± 0.31% in data set [5] (first 12 hrs after broccoli supplement, GSTP1 A/A (n=7)); 2.00 ± 0.77% in data set [5] (first 12 hrs after broccoli supplement, GSTP1 A/G (n=5)).
